What was measured:
Test in all cases: Caliper, Mobility shift assay off-chip
[1] = target: MELK (human) (UniProt Q14680)
[2] = target: DDR2 (human) (UniProt Q16832)
[3] = target: BMX (human) (UniProt P51813)
[4] = target: SGK3 (human) (UniProt Q96BR1)
[5] = target: SRPK3 (human) (UniProt Q9UPE1)
[6] = target: EPHB3 (human) (UniProt P54753)
[7] = tested on: EGFR (human), P00533 [T790M/L858R]
[8] = target: PLK2 (human) (UniProt Q9NYY3)
[9] = target: EEF2K (human) (UniProt O00418)
[10] = target: STK33 (human) (UniProt Q9BYT3)
[11] = target: AKT3 (human) (UniProt Q9Y243)
[12] = target: STK24 (human) (UniProt Q9Y6E0)
[13] = target: FGFR2 (human) (UniProt P21802)
[14] = target: PAK3 (human) (UniProt O75914)
[15] = target: DAPK3 (human) (UniProt O43293)
[16] = target: PRKCZ (human) (UniProt Q05513)
[17] = target: NTRK2 (human) (UniProt Q16620)
[18] = target: FLT1 (human) (UniProt P17948)
[19] = target: TSSK1B (human) (UniProt Q9BXA7)
[20] = tested on: ABL1 (human), P00519 [T315I]
[21] = target: ROS1 (human) (UniProt P08922)
[22] = target: CDK5 CDK5R1 p25 (human) (UniProt Q15078+Q00535)
[23] = target: TLK2 (human) (UniProt Q86UE8)
[24] = target: PRKCB1 (human) (UniProt P05771)
[25] = target: PRKD1 (human) (UniProt Q15139)
[26] = tested on: FGFR1 (human), P11362 [V561M]
[27] = target: MAP3K9 (human) (UniProt P80192)
[28] = target: SGK2 (human) (UniProt Q9HBY8)
[29] = target: CDK6 CCND3 (human) (UniProt Q00534+P30281)
[30] = target: MINK1 (human) (UniProt Q8N4C8)
[31] = tested on: EGFR (human), P00533 [L861Q]
[32] = target: ABL2 (human) (UniProt P42684)
[33] = tested on: EGFR (human), P00533 [T790M]
[34] = target: NLK (human) (UniProt Q9UBE8)
[35] = target: NTRK1 (human) (UniProt P04629)
[36] = target: DCLK2 (human) (UniProt Q8N568)
[37] = target: PRKCH (human) (UniProt P24723)
[38] = tested on: KIT (human), P10721 [D816H]
[39] = target: CAMK2D (human) (UniProt Q13557)
[40] = target: SRPK2 (human) (UniProt P78362)
[41] = target: NEK7 (human) (UniProt Q8TDX7)

Chain of MELK (human) (Q14680 whole entry, looked up): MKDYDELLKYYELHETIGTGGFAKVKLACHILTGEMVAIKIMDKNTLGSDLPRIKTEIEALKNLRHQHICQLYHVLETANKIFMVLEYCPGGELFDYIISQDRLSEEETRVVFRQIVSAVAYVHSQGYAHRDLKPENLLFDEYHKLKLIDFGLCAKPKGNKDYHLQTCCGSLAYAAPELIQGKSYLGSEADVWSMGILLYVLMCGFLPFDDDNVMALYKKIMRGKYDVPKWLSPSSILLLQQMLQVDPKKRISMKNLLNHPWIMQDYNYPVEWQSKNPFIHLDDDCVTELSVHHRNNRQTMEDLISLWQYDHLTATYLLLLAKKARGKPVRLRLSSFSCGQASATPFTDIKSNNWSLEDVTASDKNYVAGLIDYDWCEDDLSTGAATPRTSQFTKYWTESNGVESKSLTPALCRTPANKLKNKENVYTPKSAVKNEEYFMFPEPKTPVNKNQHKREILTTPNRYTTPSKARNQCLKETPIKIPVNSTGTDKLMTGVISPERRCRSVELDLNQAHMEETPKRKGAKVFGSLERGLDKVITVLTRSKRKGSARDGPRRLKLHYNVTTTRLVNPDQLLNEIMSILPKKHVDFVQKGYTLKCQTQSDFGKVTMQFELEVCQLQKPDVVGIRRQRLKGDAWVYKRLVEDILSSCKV
Chain of EEF2K (human) (O00418 whole entry, looked up): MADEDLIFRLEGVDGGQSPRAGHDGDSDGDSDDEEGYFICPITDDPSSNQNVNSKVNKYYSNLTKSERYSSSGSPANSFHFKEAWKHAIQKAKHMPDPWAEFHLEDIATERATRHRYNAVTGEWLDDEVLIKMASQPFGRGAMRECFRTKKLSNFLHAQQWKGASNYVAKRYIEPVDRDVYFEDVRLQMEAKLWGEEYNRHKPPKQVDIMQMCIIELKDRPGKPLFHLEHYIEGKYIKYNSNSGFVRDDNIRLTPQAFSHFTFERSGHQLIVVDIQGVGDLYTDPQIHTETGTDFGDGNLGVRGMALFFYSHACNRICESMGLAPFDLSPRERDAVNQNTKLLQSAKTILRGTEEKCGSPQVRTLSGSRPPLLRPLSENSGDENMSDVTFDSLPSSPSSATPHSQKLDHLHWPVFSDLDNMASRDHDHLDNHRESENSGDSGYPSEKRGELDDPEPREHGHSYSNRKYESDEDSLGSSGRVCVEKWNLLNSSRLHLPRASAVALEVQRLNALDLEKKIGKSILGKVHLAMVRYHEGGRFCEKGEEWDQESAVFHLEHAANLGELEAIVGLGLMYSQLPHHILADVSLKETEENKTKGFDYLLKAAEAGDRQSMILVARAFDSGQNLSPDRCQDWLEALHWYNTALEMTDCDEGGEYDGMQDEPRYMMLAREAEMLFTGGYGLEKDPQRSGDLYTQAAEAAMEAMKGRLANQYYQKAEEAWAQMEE
Chain of AKT3 (human) (Q9Y243 whole entry, looked up): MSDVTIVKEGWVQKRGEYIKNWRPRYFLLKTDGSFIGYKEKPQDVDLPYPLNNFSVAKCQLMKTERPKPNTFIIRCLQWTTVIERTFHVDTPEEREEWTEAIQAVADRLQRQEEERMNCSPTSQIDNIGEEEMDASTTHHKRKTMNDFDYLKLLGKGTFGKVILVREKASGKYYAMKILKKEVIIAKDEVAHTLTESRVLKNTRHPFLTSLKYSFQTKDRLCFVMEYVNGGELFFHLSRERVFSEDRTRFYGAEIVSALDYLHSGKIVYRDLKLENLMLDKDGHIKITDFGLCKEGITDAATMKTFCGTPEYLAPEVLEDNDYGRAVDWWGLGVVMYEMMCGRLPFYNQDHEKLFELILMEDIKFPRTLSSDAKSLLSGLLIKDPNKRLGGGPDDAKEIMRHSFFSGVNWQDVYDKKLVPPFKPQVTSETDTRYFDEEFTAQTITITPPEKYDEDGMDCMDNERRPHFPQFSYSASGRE
Chain of TLK2 (human) (Q86UE8 whole entry, looked up): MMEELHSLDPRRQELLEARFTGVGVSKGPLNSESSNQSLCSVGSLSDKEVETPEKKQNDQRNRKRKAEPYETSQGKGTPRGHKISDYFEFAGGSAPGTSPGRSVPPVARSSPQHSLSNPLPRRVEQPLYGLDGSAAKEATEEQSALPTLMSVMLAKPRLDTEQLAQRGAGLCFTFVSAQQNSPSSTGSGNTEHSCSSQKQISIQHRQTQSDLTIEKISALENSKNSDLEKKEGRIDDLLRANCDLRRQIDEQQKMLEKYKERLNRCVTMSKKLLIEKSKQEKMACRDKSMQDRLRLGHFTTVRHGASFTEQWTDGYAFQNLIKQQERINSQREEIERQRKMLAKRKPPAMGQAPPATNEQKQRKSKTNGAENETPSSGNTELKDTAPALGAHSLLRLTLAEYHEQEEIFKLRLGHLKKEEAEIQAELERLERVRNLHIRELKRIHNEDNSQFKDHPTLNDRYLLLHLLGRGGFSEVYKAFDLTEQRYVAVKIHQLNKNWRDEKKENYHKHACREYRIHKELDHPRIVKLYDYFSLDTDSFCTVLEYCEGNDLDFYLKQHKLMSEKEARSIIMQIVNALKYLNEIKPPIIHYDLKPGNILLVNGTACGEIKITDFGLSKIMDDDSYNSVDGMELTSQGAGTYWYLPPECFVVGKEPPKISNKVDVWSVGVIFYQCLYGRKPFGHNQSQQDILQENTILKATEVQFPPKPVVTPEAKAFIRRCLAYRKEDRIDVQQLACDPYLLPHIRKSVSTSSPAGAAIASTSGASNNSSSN
Chain of PRKD1 (human) (Q15139 whole entry, looked up): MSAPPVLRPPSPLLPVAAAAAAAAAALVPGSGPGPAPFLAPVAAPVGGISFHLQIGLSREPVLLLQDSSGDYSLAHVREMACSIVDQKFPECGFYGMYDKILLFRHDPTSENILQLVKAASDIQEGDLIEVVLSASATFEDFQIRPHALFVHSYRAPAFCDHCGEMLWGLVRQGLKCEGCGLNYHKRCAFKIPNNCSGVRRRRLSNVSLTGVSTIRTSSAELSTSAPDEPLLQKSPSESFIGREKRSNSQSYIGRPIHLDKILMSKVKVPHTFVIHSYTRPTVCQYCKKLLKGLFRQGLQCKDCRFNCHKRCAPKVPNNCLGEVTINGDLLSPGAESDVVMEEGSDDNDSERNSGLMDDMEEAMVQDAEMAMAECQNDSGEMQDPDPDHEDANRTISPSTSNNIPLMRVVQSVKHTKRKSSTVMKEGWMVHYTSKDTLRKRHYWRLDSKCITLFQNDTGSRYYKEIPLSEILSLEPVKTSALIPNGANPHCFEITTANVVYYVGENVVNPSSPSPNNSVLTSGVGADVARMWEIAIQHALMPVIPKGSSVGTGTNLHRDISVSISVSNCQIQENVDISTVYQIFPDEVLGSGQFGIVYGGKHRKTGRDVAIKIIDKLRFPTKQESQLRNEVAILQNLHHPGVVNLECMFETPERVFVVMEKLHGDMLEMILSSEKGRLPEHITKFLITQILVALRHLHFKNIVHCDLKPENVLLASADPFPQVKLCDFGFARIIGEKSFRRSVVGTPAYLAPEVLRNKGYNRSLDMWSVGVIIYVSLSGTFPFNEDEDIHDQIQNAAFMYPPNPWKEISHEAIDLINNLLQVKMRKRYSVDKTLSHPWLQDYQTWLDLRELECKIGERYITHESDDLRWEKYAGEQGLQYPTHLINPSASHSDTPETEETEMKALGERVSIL
Chain of PRKCB1 (human) (P05771 whole entry, looked up): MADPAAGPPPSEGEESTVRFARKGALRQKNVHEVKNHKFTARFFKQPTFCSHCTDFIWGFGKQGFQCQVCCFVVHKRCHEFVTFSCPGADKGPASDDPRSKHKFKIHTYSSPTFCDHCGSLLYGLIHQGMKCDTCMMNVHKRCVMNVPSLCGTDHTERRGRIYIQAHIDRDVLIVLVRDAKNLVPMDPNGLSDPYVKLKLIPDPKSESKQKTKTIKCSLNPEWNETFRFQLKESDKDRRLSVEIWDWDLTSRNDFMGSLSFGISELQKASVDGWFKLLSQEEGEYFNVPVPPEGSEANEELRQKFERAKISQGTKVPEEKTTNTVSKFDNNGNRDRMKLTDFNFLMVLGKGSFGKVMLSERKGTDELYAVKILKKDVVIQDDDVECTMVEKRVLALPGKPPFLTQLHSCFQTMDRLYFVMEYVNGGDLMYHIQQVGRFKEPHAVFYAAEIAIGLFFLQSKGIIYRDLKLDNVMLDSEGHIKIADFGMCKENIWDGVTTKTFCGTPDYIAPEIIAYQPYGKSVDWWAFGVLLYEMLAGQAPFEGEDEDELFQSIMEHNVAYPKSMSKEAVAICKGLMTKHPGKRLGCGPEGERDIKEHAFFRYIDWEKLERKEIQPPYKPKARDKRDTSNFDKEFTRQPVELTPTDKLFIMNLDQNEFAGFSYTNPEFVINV
Chain of PRKCH (human) (P24723 whole entry, looked up): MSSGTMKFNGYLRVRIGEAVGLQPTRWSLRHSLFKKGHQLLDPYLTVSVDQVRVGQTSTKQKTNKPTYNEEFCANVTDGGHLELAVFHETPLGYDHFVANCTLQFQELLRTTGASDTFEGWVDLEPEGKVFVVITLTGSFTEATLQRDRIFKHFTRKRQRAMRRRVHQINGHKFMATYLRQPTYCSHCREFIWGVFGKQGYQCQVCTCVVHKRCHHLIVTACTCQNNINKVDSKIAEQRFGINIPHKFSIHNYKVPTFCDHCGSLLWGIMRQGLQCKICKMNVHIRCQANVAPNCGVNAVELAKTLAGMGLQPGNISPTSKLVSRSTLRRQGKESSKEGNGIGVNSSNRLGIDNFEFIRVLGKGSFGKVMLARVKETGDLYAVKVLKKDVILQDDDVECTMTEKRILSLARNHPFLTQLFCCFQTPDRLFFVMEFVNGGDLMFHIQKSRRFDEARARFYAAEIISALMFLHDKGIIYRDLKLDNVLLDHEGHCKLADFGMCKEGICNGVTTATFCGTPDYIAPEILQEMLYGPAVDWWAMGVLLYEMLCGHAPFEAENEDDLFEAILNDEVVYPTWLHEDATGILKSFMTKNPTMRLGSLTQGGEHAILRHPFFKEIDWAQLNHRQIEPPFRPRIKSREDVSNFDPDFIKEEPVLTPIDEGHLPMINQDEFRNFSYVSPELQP

CC(C)(C)c1nc2c3ccc(F)cc3c3c(=O)[nH]ccc3c2[nH]1 gave a residual activity ([1]; compound 10.0 µM) of 6%.
COc1ccc(C#Cc2ccc3ncc4ncn(-c5ccc(CCN)cc5)c4c3c2)cc1 was tested, and the residual activity ([2]; compound 10.0 µM) was 57%, the residual activity ([3]; compound 10.0 µM) was 25% and the residual activity ([4]; compound 10.0 µM) was 12%. The residual activity ([5]; compound 10.0 µM) was 58%, the residual activity ([6]; compound 10.0 µM) was 113% and the residual activity ([7]; compound 10.0 µM) was 68%. The residual activity ([8]; compound 10.0 µM) was 107%, the residual activity ([9]; compound 10.0 µM) was 93% and the residual activity ([10]; compound 10.0 µM) was 58%. It also gave a residual activity ([11]; compound 10.0 µM) of 26%, a residual activity ([12]; compound 10.0 µM) of 106% and a residual activity ([13]; compound 10.0 µM) of 65%. The residual activity ([14]; compound 10.0 µM) was 38%, the residual activity ([15]; compound 10.0 µM) was 34% and the residual activity ([16]; compound 10.0 µM) was 85%. It also gave a residual activity ([17]; compound 10.0 µM) of 23%, a residual activity ([18]; compound 10.0 µM) of 6% and a residual activity ([19]; compound 10.0 µM) of 99%. It also gave a residual activity ([20]; compound 10.0 µM) of 62%, a residual activity ([21]; compound 10.0 µM) of 54% and a residual activity ([22]; compound 10.0 µM) of 82%. The residual activity ([23]; compound 10.0 µM) was 106%, the residual activity ([24]; compound 10.0 µM) was 99% and the residual activity ([25]; compound 10.0 µM) was 32%. It also gave a residual activity ([1]; compound 10.0 µM) of 13%, a residual activity ([26]; compound 10.0 µM) of 6% and a residual activity ([27]; compound 10.0 µM) of 8%. For the same molecule, the residual activity ([28]; compound 10.0 µM) was 26%, the residual activity ([29]; compound 10.0 µM) was 103% and the residual activity ([30]; compound 10.0 µM) was 23%. The residual activity ([31]; compound 10.0 µM) was 72%, the residual activity ([32]; compound 10.0 µM) was 78% and the residual activity ([33]; compound 10.0 µM) was 65%. It also gave a residual activity ([34]; compound 10.0 µM) of 78%, a residual activity ([35]; compound 10.0 µM) of 4% and a residual activity ([36]; compound 10.0 µM) of 105%. For the same molecule, the residual activity ([37]; compound 10.0 µM) was 95%, the residual activity ([38]; compound 10.0 µM) was 22% and the residual activity ([39]; compound 10.0 µM) was 11%. It also gave a residual activity ([40]; compound 10.0 µM) of 96% and a residual activity ([41]; compound 10.0 µM) of 121%.
C[C@@H](Nc1nc2c(C#CC3CC3)c[nH]c(=O)c2c2cc(-c3cn[nH]c3)ccc12)C(C)(C)C was tested, and the residual activity ([2]; compound 1.0 µM) was 101%, the residual activity ([3]; compound 1.0 µM) was 89% and the residual activity ([4]; compound 1.0 µM) was 104%. The residual activity ([5]; compound 1.0 µM) was 115%, the residual activity ([6]; compound 1.0 µM) was 132% and the residual activity ([7]; compound 1.0 µM) was 12%. It also gave a residual activity ([8]; compound 1.0 µM) of 72%, a residual activity ([9]; compound 1.0 µM) of 115% and a residual activity ([10]; compound 1.0 µM) of 41%. The residual activity ([11]; compound 1.0 µM) was 102%, the residual activity ([12]; compound 1.0 µM) was 125% and the residual activity ([13]; compound 1.0 µM) was 56%. It also gave a residual activity ([14]; compound 1.0 µM) of 78%, a residual activity ([15]; compound 1.0 µM) of 57% and a residual activity ([16]; compound 1.0 µM) of 108%. The residual activity ([17]; compound 1.0 µM) was 59%, the residual activity ([18]; compound 1.0 µM) was 28% and the residual activity ([19]; compound 1.0 µM) was 75%. The residual activity ([20]; compound 1.0 µM) was 88%, the residual activity ([21]; compound 1.0 µM) was 98% and the residual activity ([22]; compound 1.0 µM) was 104%. For the same molecule, the residual activity ([23]; compound 1.0 µM) was 80%, the residual activity ([24]; compound 1.0 µM) was 94% and the residual activity ([25]; compound 1.0 µM) was 86%. It also gave a residual activity ([1]; compound 1.0 µM) of 67%, a residual activity ([26]; compound 1.0 µM) of 73% and a residual activity ([27]; compound 1.0 µM) of 1%. For the same molecule, the residual activity ([28]; compound 1.0 µM) was 86%, the residual activity ([29]; compound 1.0 µM) was 102% and the residual activity ([30]; compound 1.0 µM) was 117%. It also gave a residual activity ([31]; compound 1.0 µM) of 68%, a residual activity ([32]; compound 1.0 µM) of 104% and a residual activity ([33]; compound 1.0 µM) of 36%. The residual activity ([34]; compound 1.0 µM) was 85%, the residual activity ([35]; compound 1.0 µM) was 10% and the residual activity ([36]; compound 1.0 µM) was 112%. It also gave a residual activity ([37]; compound 1.0 µM) of 109%, a residual activity ([38]; compound 1.0 µM) of 9% and a residual activity ([39]; compound 1.0 µM) of 25%. The residual activity ([40]; compound 1.0 µM) was 107% and the residual activity ([41]; compound 1.0 µM) was 111%.
